# Data taken from paper PMC3477139 (PLoS ONE, 2012).
# Experiments:
# [1] = molecular target: T1, human GLP-1R (Homo sapiens, UniProt P43220); assay: cAMP generation in intact HEK-GLP-1R cells; assay type: cell-based
# T1 construct: expressed in transfected cells; vector pcDNA5/FRT
# Protocol: HEK-Flp-In cells with stable recombinant expression of the human GLP-1R (HEK-GLP-1R) were cultured in DMEM with high glucose supplemented with 10% FBS, 100 µg/ml streptomycin and 100 units/ml penicillin sulphate. These cells were originally generated by transfection of HEK-Flp-In cells (Invitrogen: Paisley, U.K.) with pcDNA5/FRT containing the human GLP-1R. […] INS-1E cells were kindly provided by Prof. C.B. Wollheim of the University of Geneva, Switzerland [19]. These cells were used between passages 65–90 and cultured in RPMI media containing 11.1 mM glucose, 5% heat-inactivated FBS, 100 µg/ml streptomycin, 100 units/ml penicillin sulphate, 100 units/ml neomycin, 50 µM β-mercaptoethanol, 10 mM HEPES and 1 mM sodium pyruvate. All cells were cultured at 37°C in a 5% CO2 humidified atmosphere and passaged at confluence.
# Confluent monolayers of HEK-GLP-1R cells cultured in 24-well plates pre-coated with poly-D-lysine (0.1% w/v) where washed twice with 0.5 ml Krebs-HEPES buffer (KHB, composition: 10 mM HEPES; 4.2 mM NaHCO3; 11.7 mM D-glucose; 1.18 mM MgSO4·7H2O; 1.18 mM KH2PO4; 4.69 mM KCl; 118 mM NaCl; 1.3 mM CaCl2·2H2O; pH 7.4) containing 0.1% (w/v) BSA (KHB-BSA) before incubation (10 min, 37°C) in 360 µl KHB-BSA containing 500 µM isobutylmethylxanthine (IBMX). Ligands or vehicle control (40 µl) were added and reactions terminated after the appropriate times by replacement of the aqueous phase with ice-cold 0.5 M trichloroacetic acid. INS-1E cells grown to confluence in 24-well plates were treated similarly with the exception that after washing in KHB, cells were incubated in 200 µl KHB-BSA containing 1.4 mM glucose without IBMX for 2 h followed by challenge with ligands (or vehicle) for 15 min at 37°C in 400 µl KHB-BSA, in the presence of 10 mM glucose and 500 µM IBMX. Reactions were terminated as above.
# (§1) The cAMP was extracted from either intact cell or membrane preparations using a method identical to that for extraction of Ins(1,4,5)P3 [22]. Levels of cAMP were then determined by a competitive radioreceptor assay using binding protein purified from bovine adrenal glands and related to cellular protein assessed by Bradford assay.
# Concentration-response curves were fitted using GraphPad Prism (GraphPad Software Inc., CA) using a standard four parameter logistic equation. All data are representative of n≥3 or are presented as mean+/±s.e.m., where n = 3 unless otherwise stated. Statistical analysis was by oneway ANOVA and where P<0.05, followed by Bonferroni's or Dunnett's multiple range test as indicated. Alternatively analysis was performed by Student's t-test. Where potency estimates are given these are pEC50 values (−log10 of the molar concentration giving 50% of the maximal response).
# [2] = tested on: wild-type HEK293 cells; assay: ERK activation in wild-type HEK293 cells; assay type: cell-based; details: data not shown
# Protocol: Cells grown to confluence on 24-well plates pre-coated with poly-D-lysine (0.1% w/v) were washed and equilibrated in KHB at 37°C (400 µl). Cells were challenged at 37°C in 400 µl KHB-BSA and reactions terminated by replacement of buffer with 100 µl ice-cold Laemmli sample buffer (62.5 mM Tris-HCl, pH 6.8, 2% w/v SDS, 10% v/v glycerol, 50 mM DTT and 0.1% bromophenol blue). Proteins (∼30 µg) were separated by 12% SDS-PAGE, transferred onto polyvinylidene fluoride membranes, blocked for 1 h in 5% (w/v) skimmed milk powder in TTBS (150 mM NaCl, 50 mM Tris, pH 7.5, 0.1% Tween-20) and incubated overnight at 4°C with anti-phospho-ERK antibody (1∶2000) or anti-S6 antibody (1∶20,000) in 3% BSA in TTBS. Blots were washed (3×10 min) in TTBS and incubated for 1 h with anti-mouse HRP conjugated secondary antibody (1∶1000 in blocking buffer). After washing in TTBS (3×10 min), blots were exposed to ECL detection reagents (Uptima-Interchim, Montlucon, France) according to the manufacturer's guidelines and bands visualised using Kodak Medical X-ray film (Wolf Laboratories Ltd, Pocklington, U.K.). The intensities of the immunoblot bands were determined using ImageJ.
# [3] = tested on: adenylyl cyclase; assay: cAMP generation by direct activation of adenylyl cyclase with forskolin; assay type: biochemical; details: data not shown
# Protocol: Generation of cAMP by cell membranes was determined based on previously published methods, [21]. Membranes were prepared from confluent cell monolayers grown in 80 cm^2 flasks. Cells were washed with 5 ml HBS (154 mM NaCl, 10 mM HEPES, pH 7.4, 37°C), detached using harvesting buffer (154 mM NaCl, 10 mM HEPES, 5.4 mM EDTA, pH 7.4, 37°C) and collected by centrifugation (200 g, 2 min, 4°C). The cell pellet was resuspended in 1 ml of homogenization buffer (10 mM HEPES, 10 mM EDTA, pH 7.4) and sonicated (Sonifier Ultrasonic Cell Disruptor; Branson, CT) at 30% of the maximal amplitude for 3×5 s at ∼30 s intervals before centrifugation (30,000 g, 4°C, 10 min). After removal of the supernatant, pellets were collected in resuspension buffer (10 mM HEPES, 0.1 mM EDTA, pH 7.4), protein concentration adjusted to 1 mg/ml and stored in aliquots at −80°C until assay. Generation of cAMP was determined in 100 µl containing: 10 mM HEPES, 12 mM MgCl2, 60 mM NaCl, 1.2 mM EDTA, 1.2% w/v BSA, 5% DMSO, 480 µM ATP, 2 mM IBMX, 10 µM GTP, 20 µg membrane and ligands as indicated. […]
# as §1
# [4] = tested on: GLP-1R; details: cited from earlier work
# Description: Such proteolysis is thought to remove biological activity.
# [5] = molecular target: T1, human GLP-1R; details: earlier studies; interpretation may be compromised by adverse effects of compound 2; ref [7]; cited from earlier work
# Description: Given its physiological roles, the GLP-1R is targeted for treatment of type 2 diabetes. […] Such proteolysis is thought to remove biological activity.
# T1 sequence (P43220 24-463): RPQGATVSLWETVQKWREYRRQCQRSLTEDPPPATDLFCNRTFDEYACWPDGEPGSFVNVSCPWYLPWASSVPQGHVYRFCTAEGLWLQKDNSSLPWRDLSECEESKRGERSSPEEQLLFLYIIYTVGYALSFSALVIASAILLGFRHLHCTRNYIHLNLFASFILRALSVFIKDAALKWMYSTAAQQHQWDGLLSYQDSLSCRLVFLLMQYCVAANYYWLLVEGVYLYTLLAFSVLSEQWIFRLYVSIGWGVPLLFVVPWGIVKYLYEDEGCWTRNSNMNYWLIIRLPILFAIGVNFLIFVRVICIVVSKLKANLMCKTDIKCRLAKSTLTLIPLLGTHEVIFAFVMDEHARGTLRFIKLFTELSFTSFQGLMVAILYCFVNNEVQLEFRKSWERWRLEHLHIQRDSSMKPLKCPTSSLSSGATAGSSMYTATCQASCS
smiles,measurement,setting,value
"CC(C)(C)Nc1nc2cc(Cl)c(Cl)cc2nc1S(C)(=O)=O [compound 2, 6,7-dichloro-2-methylsulfonyl-3-N-tert-butylaminoquinoxaline]",time of peak cAMP response,"[1]; 1 µM compound 2, IBMX",30 min
same,cAMP response over time (in words),"[1]; 1 µM, over 60 min, IBMX, 5% DMSO, n = 3","evoked a more robust increase, which peaked at 30 min and then declined"
same,cAMP response (in words),"[1]; concentration-response, 15 min, IBMX","at >3 µM caused progressively lower cAMP responses, resulting in a bell-shaped concentration-response curve"
same,"maximal response (Emax), cAMP","[1]; no pretreatment (buffer 10 min), 15 min challenge, IBMX, pH 7.4, 37°C, mean±s.e.m., n = 3",1908±91 pmol/mg protein
same,"pEC50, cAMP","[1]; no pretreatment (buffer 10 min), 15 min challenge, IBMX, compound 2: rising phase of bell-shaped curve, mean±s.e.m., n = 3",5.94±0.04
same,"Emax as % of the GLP-1 7–36 amide response, cAMP","[1]; no pretreatment, 15 min challenge, IBMX",72%
same,"pEC50, cAMP, after preincubation with GLP-1 9–36 amide","[1]; preincubated 10 min with 1 µM GLP-1 9–36 amide, 15 min challenge, IBMX, compound 2: rising phase, mean±s.e.m., n = 3",6.55±0.07
same,ERK activation in wild-type HEK293 cells,[2],"Neither GLP-1 9–36 amide, GLP-1 7–36 amide nor compound 2 increased ERK activation"
same,effect on forskolin-stimulated cAMP generation,[3],inability of compound 2 to influence cAMP generation
same,effect at the GLP-1R (in words),"[4]; ago-allosteric modulator, ref [15]",not only enhancing affinity of the GLP-1R for GLP-1 but providing effective direct agonism
same,effect on affinity for GLP-1 and on its potency or intrinsic activity,"[4]; ref [7], [15]",modestly increases the affinity for GLP-1 it has little impact on potency or intrinsic activity
same,interaction of compound 2 and GLP-1 7–36 amide on ERK activation,[4]; ref [16],lack of interaction between compound 2 and GLP-1 7–36 amide on ERK activation
same,effect on GLP-1 7–36 amide potency (cAMP),[5],actually reduced GLP-1 7–36 amide potency
